Assays:
Assay in all cases: relative viability (nuclei count vs DMSO), 5 days (fraction); higher = more cells survive
CUDC-101 + Bortezomib = compound: C#Cc1cccc(Nc2ncnc3cc(OC)c(OCCCCCCC(=O)NO)cc23)c1 [CUDC-101] + CC(C)C[C@H](NC(=O)[C@H](Cc1ccccc1)NC(=O)c1cnccn1)B(O)O [Bortezomib] (partner 0.002 µM)
Method in brief: (§1)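 A single step with final 0.05% Triton X-100, 1% formaldehyde and 1 ug/ml Hoechst fixed the cells and stained nuclei 5 days after treatment. Lung cancer cell lines in 1536-well plates had been treated by pin tool the day after seeding with one drug alone or a fixed anchor-drug dose plus five library-drug doses (not always all listed) in √10 steps, and nuclei were counted on 4× images. Relative viability is the ratio of nuclei in treated wells to nuclei in vehicle wells, taken as the median of duplicate plates.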

CUDC-101 + Vorinostat = compound: C#Cc1cccc(Nc2ncnc3cc(OC)c(OCCCCCCC(=O)NO)cc23)c1 [CUDC-101] + O=C(CCCCCCC(=O)Nc1ccccc1)NO [Vorinostat] (partner 1 µM)
Method in brief: as §1

[1] = compound: C1=CC=C2C(=C1)N=C(S2)C(C#N)C3=NC(=NC=C3)NCCC4=CN=CC=C4 + CC(C)C[C@H](NC(=O)[C@H](Cc1ccccc1)NC(=O)c1cnccn1)B(O)O [Bortezomib] (partner 0.002 µM)
Method in brief: as §1

[2] = compound: C1=CC=C2C(=C1)N=C(S2)C(C#N)C3=NC(=NC=C3)NCCC4=CN=CC=C4 + CS(=O)(=O)N1CCN(Cc2cc3nc(-c4cccc5[nH]ncc45)nc(N4CCOCC4)c3s2)CC1 [Pictilisib] (partner 1 µM)
Method in brief: as §1

Cell Line: LXF-289
- relative viability (CUDC-101 + Bortezomib; first compound 0.01 µM): 1.02
- relative viability (CUDC-101 + Bortezomib; first compound 0.03162 µM): 0.987
- relative viability (CUDC-101 + Bortezomib; first compound 0.1 µM): 0.972
- relative viability (CUDC-101 + Bortezomib; first compound 0.3162 µM): 0.953
- relative viability (CUDC-101 + Bortezomib; first compound 1 µM): 0.704
- relative viability (CUDC-101 + Vorinostat; first compound 0.01 µM): 0.755
- relative viability (CUDC-101 + Vorinostat; first compound 0.03162 µM): 0.757
- relative viability (CUDC-101 + Vorinostat; first compound 0.1 µM): 0.71
- relative viability (CUDC-101 + Vorinostat; first compound 0.3162 µM): 0.594
- relative viability (CUDC-101 + Vorinostat; first compound 1 µM): 0.447
- relative viability ([1]; first compound 0.005 µM): 0.888
- relative viability ([1]; first compound 0.01581 µM): 1.03
- relative viability ([1]; first compound 0.05 µM): 1.02
- relative viability ([1]; first compound 0.1581 µM): 1.06
- relative viability ([1]; first compound 0.5 µM): 0.717
- relative viability ([2]; first compound 0.005 µM): 0.705
- relative viability ([2]; first compound 0.01581 µM): 0.922
- relative viability ([2]; first compound 0.05 µM): 0.893
- relative viability ([2]; first compound 0.1581 µM): 0.899
- relative viability ([2]; first compound 0.5 µM): 0.676

Cell Line: CAL-12T
- relative viability (CUDC-101 + Bortezomib; first compound 0.01 µM): 1.04
- relative viability (CUDC-101 + Bortezomib; first compound 0.03162 µM): 1.18
- relative viability (CUDC-101 + Bortezomib; first compound 0.1 µM): 0.983
- relative viability (CUDC-101 + Bortezomib; first compound 0.3162 µM): 0.926
- relative viability (CUDC-101 + Bortezomib; first compound 1 µM): 0.741
- relative viability (CUDC-101 + Vorinostat; first compound 0.01 µM): 0.761
- relative viability (CUDC-101 + Vorinostat; first compound 0.03162 µM): 0.803
- relative viability (CUDC-101 + Vorinostat; first compound 0.1 µM): 0.919
- relative viability (CUDC-101 + Vorinostat; first compound 0.3162 µM): 0.828
- relative viability (CUDC-101 + Vorinostat; first compound 1 µM): 0.487
- relative viability ([1]; first compound 0.005 µM): 0.83
- relative viability ([1]; first compound 0.1581 µM): 1.2
- relative viability ([1]; first compound 0.5 µM): 0.54
- relative viability ([2]; first compound 0.005 µM): 0.607
- relative viability ([2]; first compound 0.1581 µM): 0.551
- relative viability ([2]; first compound 0.5 µM): 0.375

Cell Line: SW 1573
- relative viability (CUDC-101 + Bortezomib; first compound 0.01 µM): 1.23
- relative viability (CUDC-101 + Bortezomib; first compound 0.03162 µM): 1.13
- relative viability (CUDC-101 + Bortezomib; first compound 0.1 µM): 1.13
- relative viability (CUDC-101 + Bortezomib; first compound 0.3162 µM): 1.27
- relative viability (CUDC-101 + Bortezomib; first compound 1 µM): 0.914
- relative viability (CUDC-101 + Vorinostat; first compound 0.01 µM): 0.979
- relative viability (CUDC-101 + Vorinostat; first compound 0.03162 µM): 0.689
- relative viability (CUDC-101 + Vorinostat; first compound 0.1 µM): 0.675
- relative viability (CUDC-101 + Vorinostat; first compound 0.3162 µM): 0.773
- relative viability (CUDC-101 + Vorinostat; first compound 1 µM): 0.468
- relative viability ([1]; first compound 0.005 µM): 0.659
- relative viability ([1]; first compound 0.01581 µM): 1.26
- relative viability ([1]; first compound 0.1581 µM): 1.1
- relative viability ([1]; first compound 0.5 µM): 0.936
- relative viability ([2]; first compound 0.005 µM): 0.373
- relative viability ([2]; first compound 0.01581 µM): 0.542
- relative viability ([2]; first compound 0.05 µM): 0.505
- relative viability ([2]; first compound 0.1581 µM): 0.497
- relative viability ([2]; first compound 0.5 µM): 0.497

Cell Line: NCI-H1975
- relative viability (CUDC-101 + Bortezomib; first compound 0.01 µM): 0.418
- relative viability (CUDC-101 + Bortezomib; first compound 0.03162 µM): 0.361
- relative viability (CUDC-101 + Bortezomib; first compound 0.1 µM): 0.427
- relative viability (CUDC-101 + Bortezomib; first compound 0.3162 µM): 0.362
- relative viability (CUDC-101 + Bortezomib; first compound 1 µM): 0.165
- relative viability (CUDC-101 + Vorinostat; first compound 0.01 µM): 0.687
- relative viability (CUDC-101 + Vorinostat; first compound 0.03162 µM): 0.712
- relative viability (CUDC-101 + Vorinostat; first compound 0.1 µM): 0.781
- relative viability (CUDC-101 + Vorinostat; first compound 0.3162 µM): 0.75
- relative viability (CUDC-101 + Vorinostat; first compound 1 µM): 0.642
- relative viability ([1]; first compound 0.005 µM): 0.377
- relative viability ([1]; first compound 0.01581 µM): 0.41
- relative viability ([1]; first compound 0.05 µM): 0.367
- relative viability ([1]; first compound 0.1581 µM): 0.414
- relative viability ([1]; first compound 0.5 µM): 0.307
- relative viability ([2]; first compound 0.005 µM): 0.262
- relative viability ([2]; first compound 0.01581 µM): 0.28
- relative viability ([2]; first compound 0.05 µM): 0.284
- relative viability ([2]; first compound 0.1581 µM): 0.307
- relative viability ([2]; first compound 0.5 µM): 0.255

Cell Line: NCI-H647
- relative viability (CUDC-101 + Bortezomib; first compound 0.01 µM): 1.08
- relative viability (CUDC-101 + Bortezomib; first compound 0.03162 µM): 0.948
- relative viability (CUDC-101 + Bortezomib; first compound 0.1 µM): 0.871
- relative viability (CUDC-101 + Bortezomib; first compound 0.3162 µM): 0.724
- relative viability (CUDC-101 + Bortezomib; first compound 1 µM): 0.119
- relative viability (CUDC-101 + Vorinostat; first compound 0.01 µM): 0.479
- relative viability (CUDC-101 + Vorinostat; first compound 0.03162 µM): 0.465
- relative viability (CUDC-101 + Vorinostat; first compound 0.1 µM): 0.664
- relative viability (CUDC-101 + Vorinostat; first compound 0.3162 µM): 0.427
- relative viability (CUDC-101 + Vorinostat; first compound 1 µM): 0.262
- relative viability ([1]; first compound 0.01581 µM): 1.04
- relative viability ([1]; first compound 0.05 µM): 0.869
- relative viability ([1]; first compound 0.1581 µM): 1.05
- relative viability ([1]; first compound 0.5 µM): 0.989
- relative viability ([2]; first compound 0.01581 µM): 0.301
- relative viability ([2]; first compound 0.05 µM): 0.391
- relative viability ([2]; first compound 0.1581 µM): 0.556
- relative viability ([2]; first compound 0.5 µM): 0.452

Cell Line: NCI-H322M
- relative viability (CUDC-101 + Bortezomib; first compound 0.01 µM): 1.15
- relative viability (CUDC-101 + Bortezomib; first compound 0.03162 µM): 1.44
- relative viability (CUDC-101 + Bortezomib; first compound 0.1 µM): 1.18
- relative viability (CUDC-101 + Bortezomib; first compound 0.3162 µM): 1.08
- relative viability (CUDC-101 + Bortezomib; first compound 1 µM): 0.776
- relative viability (CUDC-101 + Vorinostat; first compound 0.01 µM): 0.858
- relative viability (CUDC-101 + Vorinostat; first compound 0.03162 µM): 0.81
- relative viability (CUDC-101 + Vorinostat; first compound 0.1 µM): 0.799
- relative viability (CUDC-101 + Vorinostat; first compound 0.3162 µM): 0.596
- relative viability (CUDC-101 + Vorinostat; first compound 1 µM): 0.494
- relative viability ([1]; first compound 0.005 µM): 0.947
- relative viability ([1]; first compound 0.01581 µM): 1.31
- relative viability ([1]; first compound 0.05 µM): 1.21
- relative viability ([1]; first compound 0.1581 µM): 1.32
- relative viability ([1]; first compound 0.5 µM): 1.23
- relative viability ([2]; first compound 0.005 µM): 0.482
- relative viability ([2]; first compound 0.01581 µM): 0.477
- relative viability ([2]; first compound 0.05 µM): 0.492
- relative viability ([2]; first compound 0.1581 µM): 0.552
- relative viability ([2]; first compound 0.5 µM): 0.486
